Broadly, the IC50 is the concentration needed to halve the response being measured.

Holding throughout (type): biochemical
One assay addresses PI3Kγ (Homo sapiens (Human), UniProt P48736). The experiment in a line: TR-FRET enzymatic assay of PI3K isoforms (PI3Kγ). The note with it: TR-FRET, 2×Km ATP, 2 μM PIP2, PI3Kγ at 2 nM, incubated for 30 minutes at 25° C.; read-out: γ IC50. How it is done: (§1) The compounds of formula (I) were characterized for their enzymatic activity against the PI3K isoforms. Certain compounds of the present application, including certain compounds of formula (II) and (III) were also characterized for their enzymatic activity against PI3K isoforms. The activities were measured using a time-resolved fluorescence resonance energy transfer (TR-FRET) assay.
In general terms: In TR-FRET formats the signal depends on donor and acceptor labels being close together.

In another assay the target is PI3Kβ (Homo sapiens (Human), UniProt P42338). The assay can be described thus: TR-FRET enzymatic assay of PI3K isoforms (PI3Kβ). To be noted: TR-FRET, 2×Km ATP, 2 μM PIP2, incubated for 30 minutes at 25° C.; read-out: β IC50. The protocol:
as §1

Another assay addresses PI3Kδ (Homo sapiens (Human), UniProt O00329). The assay can be described thus: TR-FRET enzymatic assay of PI3K isoforms (PI3Kδ). The note with it: 2×Km ATP, 2 μM PIP2, incubated for 30 minutes at 25° C., read-out: δ IC50. How it is done:
as §1

Each structure is given as a SMILES string.

Sequence of PI3Kβ (P42338 whole entry, canonical isoform): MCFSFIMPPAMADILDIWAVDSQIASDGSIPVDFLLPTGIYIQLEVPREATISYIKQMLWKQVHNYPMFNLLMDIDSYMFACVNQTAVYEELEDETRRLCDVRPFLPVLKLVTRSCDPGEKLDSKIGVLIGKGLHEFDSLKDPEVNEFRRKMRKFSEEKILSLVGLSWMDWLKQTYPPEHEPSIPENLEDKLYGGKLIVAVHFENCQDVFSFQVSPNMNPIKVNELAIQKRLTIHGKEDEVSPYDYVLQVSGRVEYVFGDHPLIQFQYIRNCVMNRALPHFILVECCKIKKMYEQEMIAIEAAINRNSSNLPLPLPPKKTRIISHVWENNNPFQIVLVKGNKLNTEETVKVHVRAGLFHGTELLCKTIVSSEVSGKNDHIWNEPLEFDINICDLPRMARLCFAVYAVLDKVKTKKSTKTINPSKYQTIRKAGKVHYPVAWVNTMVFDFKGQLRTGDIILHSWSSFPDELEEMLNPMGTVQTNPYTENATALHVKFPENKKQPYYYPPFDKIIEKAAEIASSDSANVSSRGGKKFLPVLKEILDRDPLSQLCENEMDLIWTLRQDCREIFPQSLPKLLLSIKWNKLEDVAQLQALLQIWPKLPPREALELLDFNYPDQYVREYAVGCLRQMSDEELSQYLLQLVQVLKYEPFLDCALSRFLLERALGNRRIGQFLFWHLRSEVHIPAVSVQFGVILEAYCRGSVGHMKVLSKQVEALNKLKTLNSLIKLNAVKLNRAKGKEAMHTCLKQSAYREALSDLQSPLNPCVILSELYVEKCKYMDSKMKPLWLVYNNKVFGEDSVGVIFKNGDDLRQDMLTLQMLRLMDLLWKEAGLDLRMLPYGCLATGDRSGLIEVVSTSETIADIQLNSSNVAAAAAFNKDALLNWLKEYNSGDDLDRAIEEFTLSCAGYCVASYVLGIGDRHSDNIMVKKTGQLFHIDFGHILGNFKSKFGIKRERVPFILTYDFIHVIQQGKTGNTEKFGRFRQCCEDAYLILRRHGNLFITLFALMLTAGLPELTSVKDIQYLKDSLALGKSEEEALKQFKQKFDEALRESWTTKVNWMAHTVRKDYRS
Sequence of PI3Kβ (P27986 whole entry partner, canonical isoform): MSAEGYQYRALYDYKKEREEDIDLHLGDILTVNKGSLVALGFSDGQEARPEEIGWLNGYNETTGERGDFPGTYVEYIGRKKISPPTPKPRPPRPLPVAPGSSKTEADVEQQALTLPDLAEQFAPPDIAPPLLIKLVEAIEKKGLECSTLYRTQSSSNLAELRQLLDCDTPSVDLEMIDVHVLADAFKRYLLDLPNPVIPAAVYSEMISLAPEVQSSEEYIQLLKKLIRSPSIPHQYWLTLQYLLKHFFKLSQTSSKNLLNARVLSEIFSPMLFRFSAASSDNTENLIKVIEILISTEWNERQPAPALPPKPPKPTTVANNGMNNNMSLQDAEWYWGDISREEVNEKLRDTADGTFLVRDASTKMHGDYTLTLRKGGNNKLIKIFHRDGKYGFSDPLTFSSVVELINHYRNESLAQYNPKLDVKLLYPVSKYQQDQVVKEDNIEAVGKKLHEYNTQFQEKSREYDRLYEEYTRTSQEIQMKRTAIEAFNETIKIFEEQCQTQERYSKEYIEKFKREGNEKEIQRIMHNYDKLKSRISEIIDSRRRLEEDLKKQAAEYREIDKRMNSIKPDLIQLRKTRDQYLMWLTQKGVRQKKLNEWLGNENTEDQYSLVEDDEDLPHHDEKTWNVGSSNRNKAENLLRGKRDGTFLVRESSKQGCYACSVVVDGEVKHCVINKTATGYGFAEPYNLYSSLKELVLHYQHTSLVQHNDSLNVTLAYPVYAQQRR
Sequence of PI3Kδ (O00329 whole entry, canonical isoform): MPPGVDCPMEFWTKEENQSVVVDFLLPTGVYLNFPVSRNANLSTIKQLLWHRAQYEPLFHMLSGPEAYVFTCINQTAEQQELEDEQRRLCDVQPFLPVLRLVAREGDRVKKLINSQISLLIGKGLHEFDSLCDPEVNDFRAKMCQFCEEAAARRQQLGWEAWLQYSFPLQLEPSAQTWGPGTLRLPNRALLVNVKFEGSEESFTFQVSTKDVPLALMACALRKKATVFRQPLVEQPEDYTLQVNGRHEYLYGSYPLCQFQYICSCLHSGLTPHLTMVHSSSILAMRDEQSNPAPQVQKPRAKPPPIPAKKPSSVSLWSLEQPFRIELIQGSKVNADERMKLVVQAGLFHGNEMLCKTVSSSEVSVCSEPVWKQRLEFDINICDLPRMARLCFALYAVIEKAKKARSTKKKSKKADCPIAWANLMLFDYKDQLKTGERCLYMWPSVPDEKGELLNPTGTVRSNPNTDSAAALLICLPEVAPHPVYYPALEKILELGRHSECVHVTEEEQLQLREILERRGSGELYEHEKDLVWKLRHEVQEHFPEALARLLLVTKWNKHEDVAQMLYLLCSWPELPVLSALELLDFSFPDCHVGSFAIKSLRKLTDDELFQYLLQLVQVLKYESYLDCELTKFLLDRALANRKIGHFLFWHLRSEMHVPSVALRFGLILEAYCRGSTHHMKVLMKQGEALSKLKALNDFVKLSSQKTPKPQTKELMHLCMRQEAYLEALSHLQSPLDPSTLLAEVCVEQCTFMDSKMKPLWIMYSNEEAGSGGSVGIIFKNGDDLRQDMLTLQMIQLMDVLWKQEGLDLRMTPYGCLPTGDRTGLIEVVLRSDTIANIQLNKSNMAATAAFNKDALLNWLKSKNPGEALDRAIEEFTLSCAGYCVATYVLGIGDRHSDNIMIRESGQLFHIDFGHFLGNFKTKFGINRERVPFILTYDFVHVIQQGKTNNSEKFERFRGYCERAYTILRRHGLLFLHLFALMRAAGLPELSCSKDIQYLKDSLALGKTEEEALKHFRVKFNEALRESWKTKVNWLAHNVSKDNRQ
Sequence of PI3Kδ (P27986 whole entry partner, canonical isoform): as the sequence (P27986 whole entry partner, canonical isoform) above
Sequence of PI3Kγ (P48736 whole entry, canonical isoform): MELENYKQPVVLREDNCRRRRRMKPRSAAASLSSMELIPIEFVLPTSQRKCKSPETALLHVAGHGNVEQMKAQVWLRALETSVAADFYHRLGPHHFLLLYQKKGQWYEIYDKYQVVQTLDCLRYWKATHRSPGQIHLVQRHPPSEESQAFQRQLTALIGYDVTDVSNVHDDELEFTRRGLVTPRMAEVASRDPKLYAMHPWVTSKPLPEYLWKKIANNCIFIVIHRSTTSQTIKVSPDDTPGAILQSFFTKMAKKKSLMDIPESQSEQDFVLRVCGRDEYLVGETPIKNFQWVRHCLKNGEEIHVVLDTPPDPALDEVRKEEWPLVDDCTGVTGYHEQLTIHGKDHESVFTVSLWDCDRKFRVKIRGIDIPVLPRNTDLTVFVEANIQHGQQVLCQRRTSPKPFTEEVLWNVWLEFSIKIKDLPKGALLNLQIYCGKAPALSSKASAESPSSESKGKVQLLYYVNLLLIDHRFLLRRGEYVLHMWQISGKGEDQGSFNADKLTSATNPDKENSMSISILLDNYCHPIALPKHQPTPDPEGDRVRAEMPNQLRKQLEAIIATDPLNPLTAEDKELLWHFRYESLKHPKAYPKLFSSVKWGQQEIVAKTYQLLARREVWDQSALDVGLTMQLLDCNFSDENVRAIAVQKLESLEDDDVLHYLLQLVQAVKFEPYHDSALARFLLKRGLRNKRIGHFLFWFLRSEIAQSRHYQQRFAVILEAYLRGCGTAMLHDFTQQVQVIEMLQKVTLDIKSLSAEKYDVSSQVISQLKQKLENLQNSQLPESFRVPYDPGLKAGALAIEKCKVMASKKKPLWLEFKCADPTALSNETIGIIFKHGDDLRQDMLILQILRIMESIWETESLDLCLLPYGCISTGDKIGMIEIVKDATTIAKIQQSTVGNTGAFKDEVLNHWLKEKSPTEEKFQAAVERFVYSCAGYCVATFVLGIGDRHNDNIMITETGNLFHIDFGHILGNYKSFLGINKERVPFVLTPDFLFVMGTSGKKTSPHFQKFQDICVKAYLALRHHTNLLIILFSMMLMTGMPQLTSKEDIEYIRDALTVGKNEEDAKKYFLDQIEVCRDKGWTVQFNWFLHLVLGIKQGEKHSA
Sequence of PI3Kγ (Q8WYR1 whole entry partner, canonical isoform): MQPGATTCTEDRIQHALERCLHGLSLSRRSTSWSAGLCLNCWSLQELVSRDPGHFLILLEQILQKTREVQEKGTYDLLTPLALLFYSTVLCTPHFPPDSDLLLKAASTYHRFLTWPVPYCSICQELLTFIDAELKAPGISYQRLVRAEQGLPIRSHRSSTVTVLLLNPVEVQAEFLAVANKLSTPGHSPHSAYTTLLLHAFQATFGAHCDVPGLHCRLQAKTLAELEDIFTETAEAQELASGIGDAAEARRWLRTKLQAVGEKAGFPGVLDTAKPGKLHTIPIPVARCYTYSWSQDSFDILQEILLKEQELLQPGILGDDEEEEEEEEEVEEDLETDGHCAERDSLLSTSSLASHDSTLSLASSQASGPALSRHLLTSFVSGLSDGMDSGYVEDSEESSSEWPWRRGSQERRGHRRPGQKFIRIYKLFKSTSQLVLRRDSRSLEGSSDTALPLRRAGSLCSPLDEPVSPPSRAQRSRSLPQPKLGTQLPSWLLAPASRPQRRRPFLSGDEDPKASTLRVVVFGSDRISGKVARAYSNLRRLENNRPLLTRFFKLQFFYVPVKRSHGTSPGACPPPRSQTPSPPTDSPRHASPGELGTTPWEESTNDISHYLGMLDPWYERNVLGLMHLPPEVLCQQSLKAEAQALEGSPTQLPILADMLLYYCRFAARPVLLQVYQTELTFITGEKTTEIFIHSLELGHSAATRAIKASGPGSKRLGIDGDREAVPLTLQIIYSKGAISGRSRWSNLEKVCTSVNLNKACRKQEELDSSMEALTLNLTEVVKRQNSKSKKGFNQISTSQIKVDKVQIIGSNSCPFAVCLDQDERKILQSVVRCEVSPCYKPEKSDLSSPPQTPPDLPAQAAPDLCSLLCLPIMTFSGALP

Consider `CCC[C@H](Nc1nc(N)nc(N)c1Cl)c1nc2cccc(Cl)c2c(=O)n1-c1cccc(C(N)=O)c1` [Compound 23, (S)-3-(5-chloro-2-(1-((2,6-diamino-5-chloropyrimidin-4-yl)amino)butyl)-4-oxoquinazolin-3(4H)-yl)benzamide], for which the IC50 was determined as 3900 nM on PI3Kγ, 12 nM on PI3Kβ and 2 nM at PI3Kδ.
For `C[C@H](Nc1nc(N)nc(C(F)F)c1C#N)c1nc2c(F)ccc(Cl)c2c(=O)n1-c1cccc(C(N)=O)c1` [Compound 24, (S)-3-(2-(1-((2-amino-5-cyano-6-(difluoromethyl)pyrimidin-4-yl)amino)ethyl)-5-chloro-8-fluoro-4-oxoquinazolin-3(4H)-yl)benzamide], in that order: 660 nM, 25 nM and 1 nM.
For `C[C@H](Nc1nc(N)nc(C(F)F)c1C#N)c1nc2cccc(Cl)c2c(=O)n1-c1cccc(C(N)=O)c1` [Compound 25, (S)-3-(2-(1-((2-amino-5-cyano-6-(difluoromethyl)pyrimidin-4-yl)amino)ethyl)-5-chloro-4-oxoquinazolin-3(4H)-yl)benzamide], the IC50 on PI3Kγ was found to be 700 nM; on PI3Kβ, 24 nM; on PI3Kδ, 1 nM.
The corresponding values for `C[C@H](Nc1nc(N)nc(C(F)F)c1C#N)c1nc2c(Cl)cc(F)cc2c(=O)n1-c1cccc(C(N)=O)c1` [Compound 26, (S)-3-(2-(1-((2-amino-5-cyano-6-(difluoromethyl)pyrimidin-4-yl)amino)ethyl)-8-chloro-6-fluoro-4-oxoquinazolin-3(4H)-yl)benzamide] are 7200 nM, 313 nM and 12 nM.
For `NC(=O)c1cccc(-n2c([C@@H](Nc3nc(N)nc(N)c3Cl)C3CC3)nc3c(Cl)cc(F)cc3c2=O)c1` [Compound 28, (S)-3-(8-chloro-2-(cyclopropyl((2,6-diamino-5-chloropyrimidin-4-yl)amino)methyl)-6-fluoro-4-oxoquinazolin-3(4H)-yl)benzamide], in that order: above 10000 nM, 267 nM and 46 nM.
The corresponding values for `C[C@H](Nc1nc(N)nc(N)c1Cl)c1nc2c(Cl)cc(F)cc2c(=O)n1-c1cccc(C(N)=O)c1` [Compound 30, (S)-3-(8-chloro-2-(1-((2,6-diamino-5-chloropyrimidin-4-yl)amino)ethyl)-6-fluoro-4-oxoquinazolin-3(4H)-yl)benzamide] are above 10000 nM, 252 nM and 22 nM.
On to `C[C@H](Nc1nc(N)nc(N)c1C#N)c1nc2c(C#N)cc(F)cc2c(=O)n1-c1cccc(C(N)=O)c1` [Compound 31, (S)-3-(8-cyano-2-(1-((2,6-diamino-5-cyanopyrimidin-4-yl)amino)ethyl)-6-fluoro-4-oxoquinazolin-3(4H)-yl)benzamide], for which the IC50 came out at 1100 nM at PI3Kγ, 21 nM at PI3Kβ and 2 nM at PI3Kδ.
For `N#Cc1c(N)nc(N)nc1N[C@H](c1nc2c(C#N)cc(F)cc2c(=O)n1-c1cccc(C(N)=O)c1)C1CC1` [Compound 32, (S)-3-(8-cyano-2-(cyclopropyl((2,6-diamino-5-cyanopyrimidin-4-yl)amino)methyl)-6-fluoro-4-oxoquinazolin-3(4H)-yl)benzamide], in that order: 1800 nM, 25 nM and 4 nM.
For `CC[C@H](Nc1nc(N)nc(N)c1C#N)c1nc2cccc(C(F)F)c2c(=O)n1-c1cccc(C(N)=O)c1` [Compound 33, (S)-3-(2-(1-((2,6-diamino-5-cyanopyrimidin-4-yl)amino)propyl)-5-(difluoromethyl)-4-oxoquinazolin-3(4H)-yl)benzamide], in that order: 380 nM, 4 nM and 0.8 nM.
For `CC[C@H](Nc1nc(N)nc(N)c1Cl)c1nc2cccc(C(F)F)c2c(=O)n1-c1cccc(C(N)=O)c1` [Compound 34, (S)-3-(2-(1-((2,6-diamino-5-chloropyrimidin-4-yl)amino)propyl)-5-(difluoromethyl)-4-oxoquinazolin-3(4H)-yl)benzamide], in that order: 5000 nM, 22 nM and 3 nM.
`N#Cc1c(N)nc(N)nc1N[C@H](c1nc2cccc(C(F)F)c2c(=O)n1-c1cccc(C(N)=O)c1)C1CC1` [Compound 35, (S)-3-(2-(cyclopropyl((2,6-diamino-5-cyanopyrimidin-4-yl)amino)methyl)-5-(difluoromethyl)-4-oxoquinazolin-3(4H)-yl)benzamide]: the concentration for half-maximal inhibition (IC50) on PI3Kγ turned out to be 200 nM; on PI3Kβ it was 5 nM; on PI3Kδ it was 1 nM.
For `C[C@H](Nc1nc(N)nc(N)c1Cl)c1nc2c(C#N)cccc2c(=O)n1-c1cccc(C(N)=O)c1` [Compound 36, (S)-3-(8-cyano-2-(1-((2,6-diamino-5-chloropyrimidin-4-yl)amino)ethyl)-4-oxoquinazolin-3(4H)-yl)benzamide], in that order: above 10000 nM, 299 nM and 10 nM.
For `C[C@H](Nc1ncnc(N)c1C#Cc1cnccn1)c1nc2cccc(Cl)c2c(=O)n1-c1cccc(C(N)=O)c1` [Compound 37, (S)-3-(2-(1-((6-amino-5-(pyrazin-2-ylethynyl)pyrimidin-4-yl)amino)ethyl)-5-chloro-4-oxoquinazolin-3(4H)-yl)benzamide], in that order: above 10000 nM, 243 nM and 7 nM.
As to `C[C@H](Nc1ncnc(N)c1C#Cc1ccccn1)c1nc2cccc(Cl)c2c(=O)n1-c1cccc(C(N)=O)c1` [Compound 38, (S)-3-(2-(1-((6-amino-5-(pyridin-2-ylethynyl)pyrimidin-4-yl)amino)ethyl)-5-chloro-4-oxoquinazolin-3(4H)-yl)benzamide], the IC50 at PI3Kγ came out at 1500 nM; at PI3Kβ, 52 nM; on PI3Kδ, 1 nM.
The corresponding values for `CCNC(=O)Nc1cccc(-n2c([C@@H](Nc3ncnc(N)c3[N+](=O)[O-])[C@@H](C)CC)nc3cccc(Cl)c3c2=O)c1` [Compound 43, 1-(3-(2-((1S,2S)-1-((6-amino-5-nitropyrimidin-4-yl)amino)-2-methylbutyl)-5-chloro-4-oxoquinazolin-3(4H)-yl)phenyl)-3-ethylurea] are above 10000 nM, 18 nM and 13 nM.
For `CCNC(=O)Nc1cccc(-n2c([C@H](C)Nc3ncnc(N)c3C#N)nc3cccc(Br)c3c2=O)c1` [Compound 45, (S)-1-(3-(2-(1-((6-amino-5-cyanopyrimidin-4-yl)amino)ethyl)-5-bromo-4-oxoquinazolin-3(4H)-yl)phenyl)-3-ethylurea], in that order: 1800 nM, 6 nM and 2 nM.
In the case of `C=CCc1cccc2nc([C@H](C)Nc3ncnc(N)c3C#N)n(-c3cccc(NC(=O)NCC)c3)c(=O)c12` [Compound 46, (S)-1-(3-(5-allyl-2-(1-((6-amino-5-cyanopyrimidin-4-yl)amino)ethyl)-4-oxoquinazolin-3(4H)-yl)phenyl)-3-ethylurea], the values for the IC50 on PI3Kγ, on PI3Kβ and at PI3Kδ were above 10000 nM, 35 nM and 17 nM, respectively.
For `CCNC(=O)Nc1cccc(-n2c([C@H](C)Nc3ncnc(N)c3C#N)nc3cccc(F)c3c2=O)c1` [Compound 47, (S)-1-(3-(2-(1-((6-amino-5-cyanopyrimidin-4-yl)amino)ethyl)-5-fluoro-4-oxoquinazolin-3(4H)-yl)phenyl)-3-ethylurea], in that order: above 10000 nM, 36 nM and 26 nM.
The corresponding values for `CCNC(=O)Nc1cccc(-n2c([C@H](C)Nc3ncnc(N)c3C#N)nc3c(Cl)ccc(Cl)c3c2=O)c1` [Compound 48, (S)-1-(3-(2-(1-((6-amino-5-cyanopyrimidin-4-yl)amino)ethyl)-5,8-dichloro-4-oxoquinazolin-3(4H)-yl)phenyl)-3-ethylurea] are above 10000 nM, 7 nM and 3 nM.
On to `CCNC(=O)Nc1cccc(-n2c([C@H](C)Nc3ncnc(N)c3C#N)nc3c(F)cccc3c2=O)c1` [Compound 49, (S)-1-(3-(2-(1-((6-amino-5-cyanopyrimidin-4-yl)amino)ethyl)-8-fluoro-4-oxoquinazolin-3(4H)-yl)phenyl)-3-ethylurea], for which the values for the IC50 at PI3Kγ, on PI3Kβ and on PI3Kδ were above 10000 nM, 230 nM and 24 nM, respectively.
`CCNC(=O)Nc1cccc(-n2c([C@H](C)Nc3ncnc(N)c3C#N)nc3c(F)ccc(F)c3c2=O)c1` [Compound 50, (S)-1-(3-(2-(1-((6-amino-5-cyanopyrimidin-4-yl)amino)ethyl)-5,8-difluoro-4-oxoquinazolin-3(4H)-yl)phenyl)-3-ethylurea]: the IC50 on PI3Kγ was above 10000 nM; on PI3Kβ it was 84 nM; at PI3Kδ, 22 nM.
The corresponding values for `CCNC(=O)Nc1cccc(-n2c([C@H](C)Nc3ncnc(N)c3C#N)nc3ccccc3c2=O)c1` [Compound 52, (S)-1-(3-(2-(1-((6-amino-5-cyanopyrimidin-4-yl)amino)ethyl)-4-oxoquinazolin-3(4H)-yl)phenyl)-3-ethylurea] are above 10000 nM, 340 nM and 39 nM.
For `CCNC(=O)Nc1cccc(-n2c([C@H](C)Nc3ncnc(N)c3C#N)nc3ccc(F)cc3c2=O)c1` [Compound 53, (S)-1-(3-(2-(1-((6-amino-5-cyanopyrimidin-4-yl)amino)ethyl)-6-fluoro-4-oxoquinazolin-3(4H)-yl)phenyl)-3-ethylurea], in that order: above 10000 nM, 550 nM and 75 nM.

For the origin of these results see patent US10221197B2, “Phosphatidylinositol 3-kinase inhibitors” (Gilead Sciences, Inc., priority 2014, dated 2019).
